Assay results: US7390915B1, “Phosphine transition metal complex having ferrocene skeleton, process for making the same, and anti-cancer agent” (Nippon Chemical Industrial Co., Ltd, priority 2007, dated 2008)

Test system: HL-60 (human acute myeloid leukemia cells)
Test: Evaluation of anti-cancer activity: HL-60 cell survival by modified Mosmann (MTT) method
Assay type: cell-based
Conditions: read-out: IC50 (concentration of inhibitor that inhibits cell growth to 50%), HL-60 cells, 24 hours culture with compound, average of at least three experiments
Experimental: <Evaluation of Anti-Cancer Activity>
HL-60 (human acute myeloid leukemia cells) as the cancerous cells was cultured under a 5% CO2 atmosphere in a wet incubator at 37° C. in a Roswell Park Memorial Institute medium (RPMI 1640) supplemented with 10% fetal bovine serum and 1% antibiotic and antimycotic.
The cells were washed with PBS and counted. A 1×10^6 cells/mL suspension was then prepared using the same medium. The suspension was added to a sterilized 96-well microplate at a density of 50000 cells per well.
The number of survived cells was then evaluated by a modified Mosmann method (T. Mosmann, J. Immunol. Method (1983) 65, 55-63). That is, a solution of a tetrazolium salt (3,[4,5-dimethylthiazol-2-yl]-2,5-diphenyltetrazolium bromide (MTT)) was added, and the culture was continued for 3 hours under the same conditions. Formazan crystals generated by enzymatic activity of the mitochondria in the cells were dissolved in 0.04 mol HCl/isopropyl alcohol and the absorbance at 595 nm was measured using a microplate reader (Bio-Rad 550). In order to eliminate the background, the absorbance at 630 nm was measured and subtracted from the observed absorbance at 595 nm. […] Note that in calculating the IC50 value, the average of values of at least three experiments conducted under the same conditions was used.

| Substance | IC50 |
| --- | --- |
| Bis((R)-1-((S)-2-(dicyclohexylphosphino)ferrocenyl)ethyldicyclohexylphosphine)gold(I)chloride [Example 1] | 19.2 µM |
| Bis((R)-1-((S)-2-(dicyclohexylphosphino)ferrocenyl)ethyldiphenylphosphine)gold(I)chloride [Example 3] | 7.92 µM |
| Bis((R)-1-((S)-2-(diphenylphosphino)ferrocenyl)ethyldicyclohexylphosphine)gold(I)chloride [Example 2] | 8.69 µM |
| Bis((S)-1-((R)-2-(dicyclohexylphosphino)ferrocenyl)ethyldiphenylphosphine)gold(I)chloride [Example 4] | 9.21 µM |
| bis(1,1′-bis-(diphenylphosphino)-2,2-bis-[(S)-4-isobutyl-2-yl]ferrocene)digold(I)dichloride [Example 7] | 2.1 µM |
| bis(1,1′-bis-(diphenylphosphino)-2,2-bis-[(S)-4-isopropyl-2-yl]ferrocene)digold(I)dichloride [Example 5] | 0.803 µM |
| bis(1,1′-bis-(diphenylphosphino)-2,2-bis-[(S)-4-sec-butyl-2-yl]ferrocene)digold(I)dichloride [Example 8] | 3.54 µM |
| bis(1,1′-bis-(diphenylphosphino)-2,2-bis-[(S)-4-tert-butyl-2-yl]ferrocene)digold(I)dichloride [Example 6] | 2.31 µM |
